Measurements taken from patent US6566547B1, “Fungicides” (Zeneca Limited, priority 1984, dated 2003).
Structures can show the parent of a compound that is named as a salt.

Q: With CO/C=C(/C(=O)OC)c1ccccc1 (as salt: sulphate) as the molecule, how does the melting point read?
A: 37 to 38 °C
